Test results reported in patent publication US5519000A, “Tumor necrosis factor inhibitors” (Centecor, Inc., priority 1994, dated 1996).
No end group written: not given here.

Each substance was assayed against T1, human TNFα (Homo sapiens, UniProt P01375) (assay: p55 receptor/IgG fusion protein binding assay (inhibition of TNFα capture by p55-Ig coated plate)). Conditions: human recombinant TNFα 25 ng/ml preincubated with peptide; relative to TNFα in the absence of peptide; read-out: IC50 (concentration necessary to inhibit TNFα by 50%), inhibition of binding of TNFα to p55TNFr-IgG chimeric construct.
T1 construct: purchased Biosource, Camarillo, Calif
T1 sequence (P01375 77-233 limits assumed): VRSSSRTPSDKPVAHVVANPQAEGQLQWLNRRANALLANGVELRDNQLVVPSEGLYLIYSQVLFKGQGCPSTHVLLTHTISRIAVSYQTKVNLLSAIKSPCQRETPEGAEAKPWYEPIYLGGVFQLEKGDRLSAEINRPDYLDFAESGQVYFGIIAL
Method: In order to screen compounds for their ability to block TNFα binding to the TNF p55 receptor, an assay has been designed using TNFα and a p55/IgG fusion protein in place of monovalent, non-fusion p55 TNF receptor protein. This assay was designed to identify peptides which bind to human TNFα and thereby prevent the capture of the TNFα by a microtiter plate coated with p55-Ig fusion protein. A constant concentration of human TNFα is preincubated with the test peptide and then incubated on the p55-Ig coated microtiter wells. Bound TNFα is detected using a specific antisera and an alkaline phosphatase-conjugated probe. An active peptide will reduce the amount of human TNFα bound to the well relative to control wells in which TNFα but no peptide was added.
A 96-well, U-bottom polyvinylchloride microtiter plate was coated with 50 μl/well of p55-Ig fusion protein at 5 μg/ml in 0.01M sodium phosphate, 0.15M sodium chloride (PBS) by incubation overnight at 4° C. or 2 hours at 37° C. The fusion protein, which consists of a p55 TNF receptor protein portion and an IgG portion, can be produced as disclosed in U.S. application Ser. No. 08/010,406 filed Jan. 29, 1993 which is incorporated herein by reference. The plate was washed three times with 0.05% Tween-20 in PBS, then blocked, by adding 150 μl/well of assay buffer (10 mM N-2-hydroxyethylpiperazine-N'-[…] (HEPES) pH 7.2, containing 0.1% porcine gelatin, 0.1% Tween-80, and 0.01% sodium azide) and continuing incubation for 1 hour at 37° C. or at 4° C. for 1-7 days.
Lyophilized peptides to be tested were weighed in tared 12×75 mm polystyrene tubes and reconstituted to a concentration of 1.2 mM with assay buffer. Each suspension was sonicated in a water bath for 1-5 minutes and vortexed 15-30 seconds to disperse large particles. Serial dilutions of each peptide suspension were prepared using assay buffer in a 96-well polystyrene microtiter plate. Additional wells received Fab fragment of the mouse/human monoclonal anti-human TNFα antibody cA2 (positive control) or assay buffer (negative control). […] The polystyrene dilution plate was then sealed and incubated 1 hour at room temperature on an orbital mixer set at moderate speed.
Following the sample preincubation, blocker was discarded from the p55-Ig coated plate and blotted dry. Aliquots (50 μl) of each peptide or control were transferred into duplicate wells on the p55-Ig coated plate which was then sealed and incubated 1 hour at 37° C. Duplicate wells containing only assay buffer were included as a plate blank. After incubation the p55-Ig plate was washed three times with 0.05% Tween-20 in PBS.
To detect TNFα captured by the p55-Ig plate, all wells were incubated in succession with polyclonal rabbit anti-human TNFα (Genzyme, Boston, Mass.; 1:500 in assay buffer, 50 μl/well), biotinylated goat anti-rabbit Ig (H&L) (Vector Laboratories, Burlingame, Calif.; 1 μg/ml in assay buffer, 50 μl/well) and streptavidin-alkaline phosphatase conjugate (Pierce, Rockford, Ill.; 1 μg/ml in assay buffer, 50 μl/well). All incubations were for 1 hour at 37° C. and after each incubation the plate was washed three times with 0.05% Tween-20 in PBS. Fifty microliters of alkaline phosphatase substrate solution (alkaline buffer (Sigma, St. Louis, Mo.) diluted 1:500 in deionized water plus one 5 mg tablet of p-nitrophenyl phosphate (Sigma, St. Louis, Mo.) per 5 ml of diluted buffer) was added to all wells and incubation continued for 20 minutes at room temperature. Color development was stopped by adding to all wells 50 μl of 3N sodium hydroxide. The optical density (OD) at 405 nm was measured on a microtiter plate reader (Molecular Devices Vmax plate reader), with the plate blank wells subtracted as background. The activity of each peptide was then expressed as the percent inhibition of TNFα capture by the p55-Ig plate, relative to the amount of TNFα captured in wells containing only assay buffer (negative control), as follows: […]
“Ac-DILLTQSPAILSVSPGERVSFS-NH2 [SEQ ID NO:6, Acetyl-aspartyl-isoleucyl-leucyl-leucyl-threonyl-glutaminyl-seryl-prolyl-alanyl-isoleucyl-leucyl-seryl-valyl-seryl-prolyl-glycyl-glutamyl-arginyl-valyl-seryl-phenylalanyl-serine-amide]” gave an IC50 of 2530 µM.
“Ac-FSNHWMNW-NH2 [SEQ ID NO:9, Acetyl-phenylalanyl-seryl-asparaginyl-histidyl-tryptophyl-methionyl-asparaginyl-tryptophan-amide]” gave an IC50 of 60 µM.
Work on “Ac-FSNHWMNWVR-NH2 [SEQ ID NO:2, Acetyl-phenylalanyl-seryl-asparaginyl-histidyl-tryptophyl-methtonyl-asparaginyl-tryptophyl-valyl-arginine-amide]” yielded an IC50 of 410 µM.
With “Ac-INTVESEDIADYYCQQSHSW-NH2 [SEQ ID NO:8, Acetyl-isoleucyl-asparaginyl-threonyl-valyl-glutamyl-seryl-glutamyl-aspartyl-isoleucyl-alanyl-aspartyl-tyrosyl-tyrosyl-cysteinyl-glutaminyl-glutaminyl-seryl-histidyl-seryl-tryptophan-amide]” the IC50 was 1110 µM.
“Ac-LIKYASQSMSGI-NH2 [SEQ ID NO:1, Acetyl-leucyl-tsoleucyl-lysyl-tyrosyl-alanyl-seryl-glutaminyl-seryl-methionyl-seryl-glycyl-isoleucine-amide]” gave an IC50 of 1880 µM.
“Ac-TDLRTEDTGVYYCSRNYYGSTY-NH2 [SEQ ID NO:5, Acetyl-threonyl-aspartyl-leucyl-arginyl-threonyl-glutamyl-aspartyl-threonyl-glycyl-valyl-tyrosyltyrosyl-cysteinyl-seryl-arginyl-asparaginyl-tyrosyl-tyrosyl-glycyl-seryl-threonyl-tyrosine-amide]” showed an IC50 of 1130 µM.
“Ac-YAESVKGRFTISRDDSKSAVYL-NH2 [SEQ ID NO:3, Acetyl-tyrosyl-alanyl-glutamyl-seryl-valyl-lysyl-glycyl-arginyl-phenylalanyl-threonyl-isoleucyl-seryl-arginyl-aspartyl-aspartyl-seryl-lysyl-seryl-alanyl-valyl-tyrosyl-leucine-amide]” gave an IC50 of 290 µM.
For “Ac-YYSQQSHSWPFTF-NH2 [SEQ ID NO:7, Acetyl-tyrosyl-tyrosyl-seryl-glutaminyl-glutaminyl-seryl-histidyl-seryl-tryptophyl-prolyl-phenylalanyl-threonyl-phenylalanine-amide]”, the IC50 was 1080 µM.
“RQSPEKGLEWVAEIRSKSI-NH2 [SEQ ID NO:4, Arginyl-glutaminyl-seryl-prolyl-glutamyl-lysyl-glycyl-leucyl-glutamyl-tryptophyl-valyl-alanyl-glutamyl-isoleucyl-arginyl-seryl-lysyl-seryl-isoleucine- amide]” gave an IC50 of 1020 µM.
